Measured values published in patent publication US9611270B2, “Inhibitors of CYP17A1” (University of Kansas, priority 2014, dated 2017).
Read-outs that look alike come from different tables or passages of the source.

How the values were obtained:
human CYP17A1 = human CYP17A1 (Homo sapiens (Human), UniProt P05093); experiment: Analysis of 17α-hydroxyprogesterone generation by CYP17A1 using HPLC
Description: Modified constructs of human CYP17A1, human CYP21A2, and human NADPH-cytochrome P450 oxidoreductase (POR) were used. These protein constructs lack a hydrophobic N-terminal transmembrane helix.
The additional A19 and H signify an N-terminal deletion of 19 amino acids for solubility (the “A19”) and a C-terminal four-histidine tag for purification (the “H”). Hereafter in the discussion of the assays below, “CYP17A1” will refer to CYP17A1HΔ19 for simplicity.
The human POR construct utilized bears an N-terminal truncation of a transmembrane helix (Δ27) to increase expression levels, and a K59Q mutation to prevent proteolysis.
Data from at least two replicates with 8 or more activity points each were averaged and analyzed for standard error.
The assays were carried out with 50 pmol of purified CYP17A1 in a 1:4 ratio with POR. The protein stocks were gently mixed together by pipetting and incubated on ice for 20 minutes. This reconstituted protein system was added to buffer (50 mM Tris, pH 7.4 and 5 mM MgCl2) containing progesterone (0-50 μM) for a total volume of 500 μL. For the inhibition studies, 50 μM progesterone was used.

human CYP21A2 [1] = target: human CYP21A2 (Homo sapiens (Human), UniProt P08686); experiment: Analysis of 21-hydroxyprogesterone generation by CYP21A2 using GC/MS; assay type: biochemical
Chain of human CYP21A2 (Homo sapiens (Human), UniProt P08686) (P08686 19-495): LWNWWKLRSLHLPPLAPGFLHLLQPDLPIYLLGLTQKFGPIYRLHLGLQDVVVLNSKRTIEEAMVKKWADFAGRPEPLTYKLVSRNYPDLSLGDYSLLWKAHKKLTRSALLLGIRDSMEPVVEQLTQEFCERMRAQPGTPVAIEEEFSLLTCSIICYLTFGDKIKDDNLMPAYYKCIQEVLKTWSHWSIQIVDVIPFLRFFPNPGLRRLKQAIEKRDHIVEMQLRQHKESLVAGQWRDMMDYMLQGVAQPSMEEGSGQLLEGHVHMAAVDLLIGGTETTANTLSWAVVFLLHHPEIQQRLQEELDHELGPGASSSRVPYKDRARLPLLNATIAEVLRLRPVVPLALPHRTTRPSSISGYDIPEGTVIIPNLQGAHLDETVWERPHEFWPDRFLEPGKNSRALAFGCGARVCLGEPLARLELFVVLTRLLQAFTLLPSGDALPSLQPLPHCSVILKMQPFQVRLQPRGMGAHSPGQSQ
Description: (§1) Two methods for detecting enzymatic activity were utilized. […] University of Kansas, Lawrence, K S, 2011.
(§2) Toxicol. Appl. […] Mol. Endocrinol. 2007, 21, 1958-1968.
(§3) The CYP21A2 construct that was used, CYP21A2dH, was also engineered as according to published procedures. See, e.g., Blake, L. C.; Scott, E. E. Cytochromes P450 as therapeutic targets and counter-targets for the prevention of lung cancer and treatment of steroidogenic diseases. University of Kansas, Lawrence, K S, 2012. In this construct, the “d” refers to an 18 amino acid N-terminal deletion. An N-terminal solubility tag was added, in addition to a C-terminal four-histidine tag (“H”). […] “Full-length CYP21A2” will be specifically designated when appropriate.
(§4) Endocrinology 2011, 152, 2904-2908.
(§5) GC/MS was performed on an Agilent Technologies 6850 Network GC System equipped with a 6850 series autosampler and an Agilent Technologies 5975C VL MSD with triple axis detector. The electron energy was 70 eV and the ion source temperature was 230° C. Each sample (5 μL) was injected at an injector temperature of 280° C. and separated through an Ultra-1 capillary column (25 m×0.2 mm inner diameter, 0.33-mm film thickness; Agilent Technologies). […] Helium was used as the carrier gas with a column head pressure of 210.3 kPa (column flow: 1.0 mL/min at an oven temperature of 215° C.). For quantitative analysis, the characteristic ions of the monitored steroids were determined as their poly-TMS derivatives. Product and starting material MS counts were normalized for analysis against a known amount of estriol internal standard.
(§6) Samples were prepared for GC/MS by solid phase extraction (SPE) using SUPELCO Supel™-Select HLB SPE tubes, bed weight 30 mg (Sigma Aldrich). Parallel evaporation was performed using a GeneVac EZ-2 plus evaporator. Poly-trimethylsilyl derivatization was accomplished using a 1000:8:4 (v/w/w) N-methyl-N-(trimethylsilyl) trifluoroacetamide:ammonium iodide:dithioerythritol mixture that had been stirred at room temperature for at least 12 hours (MSTFA).
(§7) For the inhibition studies, 0.5 μM progesterone was used as the substrate concentration for inhibition studies. […] Reactions were quenched 10 minutes after the addition of NADPH by the same (internal standard-containing) solution, and allowed to stand on ice for 10 minutes.
(§8) Solid phase extraction (SPE) cartridges (30 mg HLB resin, Sigma-Aldrich) were used on a parallel draining rack. SPEs were pre-equilibrated with 2×1 mL hexanes, 2×1 mL acetone, and 3×1 mL deionized water. Reaction samples (750 μL) were loaded onto individual SPE cartridges, allowed to drain, and then washed with 1 mL water. Glass vials (4 mL capacity) were placed under each tube, and samples were eluted with 4×1 mL acetone. The vials were concentrated for at least 12 hours by parallel evaporation to remove solvent and residual water. MSTFA derivatizing agent (120 μL) was added to each sample vial, which was capped and heated to 60° C. for 60 minutes, stirring by hand intermittently.
(§9) The amount of 21-hydroxyprogesterone present was determined by GC-MS analysis using single ion monitoring (M/Z 546.35, ca. 26 min retention time), and analyzed against the estriol internal standard peak (M/Z 504.30, ca. 15 min retention time). Progesterone (M/Z 458.30, ca. 16 min retention time) was detected for quality control among reactions and standards. For instance, if a sample registered no product or standard peak as well as no progesterone peak, it was discarded from analysis due to experimental error.

human CYP21A2 [2] = experiment: as above; assay type: biochemical; settings: for 17A1/21A2 Sel. Factor: CYP21A2 IC50 divided by CYP17A1 IC50
Description: as §1, §2, §3, §4, §5, §6, §7, §8, §9

[3] = CYP17A1 IC50, progesterone 17α-hydroxylation, 50 μM progesterone, purified CYP17A1 with POR 1:4, ± standard error

Chain of human CYP17A1 (P05093 20-508): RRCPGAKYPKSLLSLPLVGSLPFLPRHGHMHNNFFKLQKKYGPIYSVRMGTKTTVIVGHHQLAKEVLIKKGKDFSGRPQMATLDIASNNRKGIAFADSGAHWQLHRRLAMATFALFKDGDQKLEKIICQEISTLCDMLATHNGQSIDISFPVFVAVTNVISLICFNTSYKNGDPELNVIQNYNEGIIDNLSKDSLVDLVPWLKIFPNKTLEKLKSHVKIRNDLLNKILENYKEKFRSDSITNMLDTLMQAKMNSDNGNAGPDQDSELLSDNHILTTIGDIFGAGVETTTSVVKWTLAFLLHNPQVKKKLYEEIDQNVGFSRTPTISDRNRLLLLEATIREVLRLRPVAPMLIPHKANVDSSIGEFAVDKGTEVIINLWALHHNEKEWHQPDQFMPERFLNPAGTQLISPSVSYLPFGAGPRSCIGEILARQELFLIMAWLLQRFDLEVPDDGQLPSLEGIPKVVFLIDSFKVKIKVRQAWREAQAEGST

Compound: C[C@]12CC[C@H]3[C@@H](C[C@@H]4O[C@@]45C[C@@H](O)CC[C@]35C)[C@@H]1CC=C2c1cccnc1
- IC50 (human CYP17A1; [3]): 428 ± 20 nM

Compound: CC(=O)N1CC[C@@H]2[C@H](CC[C@]3(C)C(c4cccnc4)=CC[C@@H]23)[C@@]2(C)CC[C@H](O)C[C@H]12
- IC50 (human CYP17A1): 1380 nM

Compound: C[C@]12CC[C@H](O)C[C@@H]1C(=O)C[C@@H]1[C@@H]2CC[C@]2(C)C(c3cccnc3)=CC[C@@H]12
- IC50 (human CYP17A1): 208 ± 12 nM

Compound: C[C@]12CC[C@H](O)C[C@@H]1NC(=O)C[C@@H]1[C@@H]2CC[C@]2(C)C(c3cccnc3)=CC[C@@H]12
- IC50 (human CYP17A1): 5410 nM

Compound: C[C@]12CC[C@H](O)C[C@@H]1n1nnnc1C[C@@H]1[C@@H]2CC[C@]2(C)C(c3cccnc3)=CC[C@@H]12
- IC50 (human CYP17A1): 199 ± 13 nM

Compound: CN[C@H]1C[C@@H]2[C@H](CC[C@]3(C)C(c4cccnc4)=CC[C@@H]23)[C@@]2(C)CC[C@H](O)CC12 (stereo partly drawn)
- IC50 (human CYP17A1): 3970 nM

Compound: C[C@]12CC[C@H](O)C[C@@H]1/C(=N/O)C[C@@H]1[C@@H]2CC[C@]2(C)C(c3cccnc3)=CC[C@@H]12 [Compound 33, 6-Oxime-17-(3-pyridyl)-androst-16-en-3β-ol]
- IC50 (human CYP17A1): 120 to 183 nM
- IC50 (human CYP17A1; [3]): 150 ± 10 nM
- IC50 (human CYP21A2 [1]): 10300 nM

Compound: C[C@]12CC[C@H](O)CC1C(C#N)=C[C@@H]1[C@@H]2CC[C@]2(C)C(c3cccnc3)=CC[C@@H]12 (stereo partly drawn) [Compound 37, 6-Cyano-17-(3-pyridyl)-androst-6,16-dien-3β-ol]
- IC50 (human CYP17A1; [3]): 244 ± 14 nM

Compound: C[C@]12CC[C@H](O)CC1=C(C#N)C[C@@H]1[C@@H]2CC[C@]2(C)C(c3cccnc3)=CC[C@@H]12 [Compound 38, 6-Cyano-17-(3-pyridyl)-androst-5,16-dien-3β-ol]
- IC50 (human CYP17A1; [3]): 174 ± 8 nM

Compound: C[C@]12CC[C@H](O)CC1=C([N+](=O)[O-])C[C@@H]1[C@@H]2CC[C@]2(C)C(c3cccnc3)=CC[C@@H]12 [Compound 41, 6-Nitro-17-(3-pyridyl)-androst-5,16-dien-3β-ol]
- IC50 (human CYP17A1; [3]): 183 ± 23 nM
- 17A1/21A2 Sel. Factor (human CYP21A2 [2]): 4.5
- IC50 (human CYP21A2 [1]): 831 ± 96 nM

Compound: C[C@]12CC[C@H](O)CC1=C(C(N)=O)C[C@@H]1[C@@H]2CC[C@]2(C)C(c3cccnc3)=CC[C@@H]12 [Compound 42, 3β-Hydroxy-17-(3-pyridyl)-androst-5,16-dien-6-amide]
- IC50 (human CYP17A1; [3]): 120 ± 12 nM
- 17A1/21A2 Sel. Factor (human CYP21A2 [2]): 72.2
- CYP17A1/CYP21A2 selectivity relative to abiraterone (human CYP21A2 [2]; times greater than abiraterone): about 30 times
- IC50 (human CYP21A2 [1]): 8700 nM

Compound: C[C@]12CC[C@H](O)CC1=CC[C@@H]1[C@@H]2CC[C@]2(C)C(c3cccnc3)=CC[C@@H]12 [abiraterone, 17-(3-Pyridyl)-androst-5,16-dien-3β-ol, reference compound]
- IC50 (human CYP17A1): 130 nM
- 17A1/21A2 Sel. Factor (human CYP21A2 [2]): 2.3

Compound: C[C@]12CC[C@H](O)CC1=CC[C@@H]1[C@@H]2CC[C@]2(C)C(n3cnc4ccccc43)=CC[C@@H]12 [galaterone, reference compound]
- IC50 (human CYP17A1; [3]): 282 ± 16 nM
- 17A1/21A2 Sel. Factor (human CYP21A2 [2]): 0.9

Compound: CNC(=O)c1ccc2cc([C@@]3(O)CCn4cncc43)ccc2c1 [orteronel, reference compound]
- CYP17A1 progesterone hydroxylation inhibitory activity (in words) (human CYP17A1; progesterone 17α-hydroxylation): significantly less potent
- 17A1/21A2 Sel. Factor (human CYP21A2 [2]): 1.0
